Laboratory results taken from patent publication US20220213198A1, “METHOD OF TREATMENT” (The Council of the Queensland Institute of Medical Research, priority 2019, published 2022).

B1: 8F2.F9: anti-MR1 blocking antibody from hybridoma clone 8F2.F9, IgG1 isotype; heavy chain SEQ ID NO: 14, light chain SEQ ID NO: 18 (antibody, listed as Mus musculus, V domains shown)
VH: MKFSWVIFFLMAVVTGVNSEVQLQQSVAELVRPGASVKLSCTASGFNIKNTYMHWVKKRPELGLEWIGRIDPANGNTNFAPKFQGKATITADTSSNTAYLQLSSLTSEDTAIYYCPRGSGNYYFDYWGQGTTLTVSS
VL: MSSAQFLGLLLLCFQGTRCDIQMTQTTSSLSASLGDRVTISCRASQDISNYLNWYQQKPDGPVKLLIYYTSRLHSGVPSRFSGSGSGTDYSLTINNLAQEDIATYFCQQGNTLPYTFGGGTKLEIK

Legend:
MR1 / MAIT cells = details: cited from earlier work
MAIT cells = assay: In vitro co-culture of purified splenic MAIT or conventional T cells with ligand-treated B16F10 cells; format: cell-based, mouse
B16F10 melanoma cells = assay: B16F10 experimental lung metastasis model; format: in vivo, mouse
Protocol: FIG. 2. […] (A) The schematic and timeline of expanding MAIT cells from splenocytes derived from C57BL/6 WT mice with IL-2 and 5-OP-RU, for sorting and adoptive transfer into tumor-bearing mice. (B, C) Groups of WT or MR1^−/− or Rag2cγ^−/− mice (n=5-6/group) were injected i.v. with (B) 1×10^5 or (C) 1×10^4 B16F10 melanoma cells. In some groups, sorted MAIT or T conventional cells (cT) (non-MAIT αβ^+ T cells) (2×10^5 cells/mouse) from C57BL/6 (B) WT or (C) TCRδ^−/− mice were i.v. injected into the indicated groups of mice one day before tumor inoculation. (C) One group of mice received i.v injection of media alone as a control. (B, C) On day 14 relative to tumor cell inoculation, lungs were harvested and the metastatic burden was quantified by counting colonies on the lung surface. Data presented as mean±SEM. (D) B16F10 or LWT1 melanoma cells were stimulated in vitro with DMSO or 5-OP-RU (100 nM) for 4 hours before cell surface MR1 expression was determined by flow cytometry. Groups of C57BL/6 WT or MR1^−/− mice (n=5-6/group) were i.v. injected with (E) 1×10^5 B16F10 or (F) 5×10^5 LWT1 cells melanoma cells pulsed with DMSO or 5-OP-RU (100 nM, 4 hours). Fourteen days later relative to tumor cell inoculation, lungs were harvested and the metastatic burden was quantified by counting colonies on the lung surface. Data presented as mean±SEM. Experiments performed once for (B, C, F) and three times for (D, E) with one representative experiment shown. Significant differences between groups as indicated by crossbars were determined using a one-way ANOVA followed by Tukey's post-hoc test (B, E, F), *p<0.05, **p<0.01, ****p<0.0001
FIG. 5. […] (A) Generation of three independent B16F10 cell lines knocked out for MR1 using three different MR1 sgRNA. […] Empty vector transfected B16F10 cells were used as a positive control. (B, C) Groups of C57BL/6 WT, MR1^−/− or Rag2cγ^−/− mice (n=5-6/group) were i.v. injected with either (B) 1×10^5 B16F10 vector control cells or the indicated clone of B16F10 cells lacking MR1 (sgR1, sgR2, sgR3) or (C) 1×10^4 B16F10-MR1^KO cells (sgR3 clone). On day 14 relative to tumor cell inoculation, lungs were harvested and the metastatic burden was quantified by counting colonies on the lung surface. Data presented as mean±SEM. (D) Re-expression of GFP or GFP-MR1 expressing vector into B16F10-MR1^KO (sgR3 clone). MR1 surface expressions of these cells stimulated with or without 5-OP-RU were assessed by flow cytometry. (E) Groups of C57BL/6 WT mice (n=6/group) were i.v. injected with 1×10^5 B16F10-MR1^KO (sgR3 clone) transfected with empty GFP-expressing vector or MR1-GFP-expressing vector. (F) Groups of C57BL/6 WT or MR1^−/− mice were i.v. injected with parental B16F10 cells treated with vehicle (dd H2O) or AC-6-FP (10 μM, 18 hours). On day 14 relative to tumor cell injection, lungs were harvested and the metastatic burden was quantified by counting colonies on the lung surface. Data presented as mean±SEM. Experiments performed twice for (A-E) and once for (F). Significant differences between groups as indicated by crossbars were determined by a one-way ANOVA followed by Tukey's post-hoc test (A, F), or a Mann-Whitney test (C, E), *p<0.05, **p<0.01, ****p<0.0001.
FIG. 6. […] Groups of C57BL/6 WT or MR1^−/− mice (n=5-6/group) were i.v. injected with (A, B) 1×10^5 B16F10, (C) 1×10^5 parental B16F10 or 2×10^5 B16F10-MR1^KO (sgR3 clone) melanoma cells and (D) 5×10^5 LWT1 melanoma cells or s.c injected with (E) 1×10^6 MCA1956 fibrosarcoma or (F) 1×10^6 SM1WT1 melanoma cells on day 0.

B16F10 cells = assay: B16F10 proliferative and migratory assays in vitro; format: cell-based, mouse; details: co-culture of B16F10 with ligand

Molecule | effect on MAIT cell activation (MR1 / MAIT cells; background statement) | cytokine production (MAIT cells; conventional T cells with treated vs DMSO-treated B16F10) | number of treated CTV-labeled B16F10 cells (MAIT cells; following co-culture with MAIT cells) | IFNγ, IL-17A and TNF production (MAIT cells; purified splenic MAIT cells with treated vs DMSO-treated B16F10) | number of lung metastases (B16F10 melanoma cells; MR1-/- mice i.v. injected with pre-treated B16F10, vs DMSO-treated, day 14) | number of lung metastases (B16F10 melanoma cells; WT mice i.v. injected with B16F10 pre-treated 100 nM 4 h, vs DMSO-treated, day 14) | B16F10 biology as measured by proliferative or migratory assays (B16F10 cells) | blocking of MAIT cell interaction with MR1 (MR1 / MAIT cells; stated as known) | number of lung metastases (B16F10 melanoma cells; B16F10 tumor-bearing MR1-/- mice, antibody vs cIg) | suppression of B16F10 lung metastases compared with the 26.5 clone (B16F10 melanoma cells; WT mice, 250 μg/mouse i.p.) | suppression of B16F10 lung metastases, three vs four doses (B16F10 melanoma cells; WT mice, 250 μg/mouse i.p., days -1, 0, 3 vs days -1, 0, 3 and 7) | B16F10-MR1 KO (sgR3) lung metastases numbers (B16F10 melanoma cells; WT mice, antibody vs cIg, days -1, 0 and 3)
CC(=O)C=Nc1c(NC[C@H](O)[C@H](O)[C@H](O)CO)[nH]c(=O)[nH]c1=O [5-OP-RU] | one of the most potent stimulatory MAIT cell antigens | no increase in cytokine production | decrease | produced more | this increase was lost | significantly increased | did not alter the biology of these cells | – | – | – | – | –
B1 | – | – | – | – | – | – | – | block MAIT cells from interacting with MR1 | no further decrease | superior | equivalently reduced | not reduced
